Results as given in PubChem BioAssay AID248 (DTP/NCI, 2004).
“And” between values parts separate entries of the source, which are not always exact repeats. Equal values may be shown once. Inconclusive results and toxic doses are left out. Cut-off read from the data, not from the text of the source: active = T/C of 150% or more; inactive = T/C below 125%.

Test system: L1210 leukemia ip in BDF1 mice, survival T/C
Test: NCI In Vivo Anticancer Drug Screen. Data for tumor model L1210 Leukemia (intraperitoneal) in B6D2F1 (BDF1) mice
Details: endpoint: mean survival time, higher = longer survival
Procedure, shortened: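 Mice bearing the transplanted tumor received compound or vehicle. Survival of the treated group was divided by that of the vehicle-treated control group to give the ratio.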

[1] = dose: 25.0 mg/kg/injection, schedule: Q01DX009 (ip), vehicle: saline
[2] = dose: 50.0 mg/kg/injection, schedule: Q01DX009 (ip), vehicle: saline
[3] = dose: 25.0 mg/kg/injection, schedule: Q04DX002 (ip), vehicle: saline with Tween-80
[4] = dose: 50.0 mg/kg/injection, schedule: Q04DX002 (ip), vehicle: saline with Tween-80
[5] = dose: 100.0 mg/kg/injection, schedule: Q04DX003 (ip), vehicle: Klucel (hydroxypropylcellulose) (HPC)
[6] = dose: 200.0 mg/kg/injection, schedule: Q04DX003 (ip), vehicle: Klucel (hydroxypropylcellulose) (HPC)
[7] = dose: 400.0 mg/kg/injection, schedule: Q04DX003 (ip), vehicle: Klucel (hydroxypropylcellulose) (HPC)
[8] = dose: 100.0 mg/kg/injection, schedule: Q04DX003 (ip), vehicle: saline
[9] = dose: 100.0 mg/kg/injection, schedule: Q01DX001 (ip), vehicle: saline
[10] = dose: 200.0 mg/kg/injection, schedule: Q01DX001 (ip), vehicle: saline
[11] = dose: 400.0 mg/kg/injection, schedule: Q01DX001 (ip), vehicle: saline
[12] = dose: 100.0 mg/kg/injection, schedule: Q01DX009 (ip), vehicle: Klucel (hydroxypropylcellulose) (HPC)
[13] = dose: 200.0 mg/kg/injection, schedule: Q01DX009 (ip), vehicle: Klucel (hydroxypropylcellulose) (HPC)
[14] = dose: 400.0 mg/kg/injection, schedule: Q01DX009 (ip), vehicle: Klucel (hydroxypropylcellulose) (HPC)

Measured: T/C

Nc1ncnc2c1c(C1=NCCN1)cn2C1OC(CO)C(O)C1O (stereo unspecified)
active: [1] 179 % of control | [2] 155 % of control and 230 % of control
inactive: dose: 200.0 mg/kg/injection, schedule: Q01DX005 (ip), vehicle: saline 105 % of control

Cc1cc(Br)c(O)c(Br)c1
inactive: dose: 75.0 mg/kg/injection, schedule: Q01DX001 (ip), vehicle: Klucel (hydroxypropylcellulose) (HPC) 99 % of control | dose: 150.0 mg/kg/injection, schedule: Q01DX001 (ip), vehicle: Klucel (hydroxypropylcellulose) (HPC) 100 % of control | dose: 300.0 mg/kg/injection, schedule: Q01DX001 (ip), vehicle: Klucel (hydroxypropylcellulose) (HPC) 95 % of control

CC[N+](CC)(CC)CC(=O)c1ccc(Br)cc1
inactive: [3] 97 % of control | [4] 97 % of control | dose: 100.0 mg/kg/injection, schedule: Q04DX002 (ip), vehicle: saline with Tween-80 87 % of control and 92 % of control

SCc1ccc(Br)cc1
inactive: dose: 100.0 mg/kg/injection, schedule: Q01DX001 (ip), vehicle: carboxymethylcellulose (CMC) 104 % of control | dose: 200.0 mg/kg/injection, schedule: Q01DX001 (ip), vehicle: carboxymethylcellulose (CMC) 98 % of control | dose: 400.0 mg/kg/injection, schedule: Q01DX001 (ip), vehicle: carboxymethylcellulose (CMC) 104 % of control

CCC1(O)CC(OC2CC(NC)C(OC3CC(O)C(OC4CC(O)C(O)C(C)O4)C(C)O3)C(C)O2)c2c(cc3c(c2O)C(=O)c2c(O)ccc(O)c2C3=O)C1C(=O)OC (stereo unspecified)
inactive: dose: 1.6 mg/kg/injection, schedule: Q01DX001 (ip), vehicle: saline 101 % of control | dose: 3.2 mg/kg/injection, schedule: Q01DX001 (ip), vehicle: saline 108 % of control | dose: 6.4 mg/kg/injection, schedule: Q01DX001 (ip), vehicle: saline 124 % of control | dose: 12.8 mg/kg/injection, schedule: Q01DX001 (ip), vehicle: saline 117 % of control | dose: 25.6 mg/kg/injection, schedule: Q01DX001 (ip), vehicle: saline 114 % of control

Cc1ccccc1CC1c2[nH]c3ccccc3c2CCN1C (stereo unspecified)
inactive: dose: 75.0 mg/kg/injection, schedule: Q01DX001 (ip), vehicle: other 92 % of control | dose: 150.0 mg/kg/injection, schedule: Q01DX001 (ip), vehicle: other 86 % of control

C=CS(=O)(=O)CCCCCCCCCCCCCCCCCC
inactive: [5] 91 % of control | [6] 91 % of control | [7] 98 % of control

O=C(NCCCl)NC1CCC(O)CC1 (stereo unspecified)
inactive: [8] 107 % of control | dose: 200.0 mg/kg/injection, schedule: Q04DX003 (ip), vehicle: saline 100 % of control | dose: 400.0 mg/kg/injection, schedule: Q04DX003 (ip), vehicle: saline 100 % of control

OCCc1ccccc1
inactive: dose: 100.0 mg/kg/injection, schedule: Q01DX009 (ip), vehicle: saline with Tween-80 96 % of control | dose: 200.0 mg/kg/injection, schedule: Q01DX009 (ip), vehicle: saline with Tween-80 100 % of control | dose: 400.0 mg/kg/injection, schedule: Q01DX009 (ip), vehicle: saline with Tween-80 99 % of control

O=C(CSCc1ccc([N+](=O)[O-])cc1)c1ccc(Br)cc1
inactive: [9] 92 % of control | [10] 95 % of control | [11] 92 % of control

CCOc1ccc(-n2cnc3c(=O)[nH]c(N)nc32)cc1
inactive: [12] 93 % of control | [13] 91 % of control | [14] 91 % of control

COC(=O)C(CCC1CCCCN1)(c1ccccc1)c1ccccc1 (stereo unspecified)
inactive: dose: 35.0 mg/kg/injection, schedule: Q01DX009 (ip), vehicle: saline 112 % of control and 119 % of control | [2] 120 % of control | dose: 110.0 mg/kg/injection, schedule: Q01DX009 (ip), vehicle: saline 96 % of control

c1ccc(-c2noc(-c3ccccc3)n2)cc1
inactive: dose: 62.5 mg/kg/injection, schedule: Q04DX002 (ip), vehicle: Klucel (hydroxypropylcellulose) (HPC) 90 % of control | dose: 125.0 mg/kg/injection, schedule: Q04DX002 (ip), vehicle: Klucel (hydroxypropylcellulose) (HPC) 87 % of control | dose: 250.0 mg/kg/injection, schedule: Q04DX002 (ip), vehicle: Klucel (hydroxypropylcellulose) (HPC) 93 % of control

CCOC(=O)CCCCCCCCC(=O)Nc1ccc([N+](=O)[O-])cc1O
inactive: [5] 103 % of control | [6] 100 % of control | [7] 101 % of control

O=C1C2C3CCC(O3)C2C(=O)N1Cc1ccccc1CBr (stereo unspecified)
inactive: dose: 100.0 mg/kg/injection, schedule: Q04DX003 (ip), vehicle: carboxymethylcellulose (CMC) 95 % of control | dose: 200.0 mg/kg/injection, schedule: Q04DX003 (ip), vehicle: carboxymethylcellulose (CMC) 98 % of control

CSCc1cccc(CO)c1
inactive: dose: 100.0 mg/kg/injection, schedule: Q01DX009 (ip), vehicle: acetone 101 % of control | dose: 100.0 mg/kg/injection, schedule: Q04DX003 (ip), vehicle: acetone 98 % of control | dose: 200.0 mg/kg/injection, schedule: Q01DX009 (ip), vehicle: acetone 105 % of control | dose: 200.0 mg/kg/injection, schedule: Q04DX003 (ip), vehicle: acetone 106 % of control | dose: 400.0 mg/kg/injection, schedule: Q01DX009 (ip), vehicle: acetone 97 % of control | dose: 400.0 mg/kg/injection, schedule: Q04DX003 (ip), vehicle: acetone 109 % of control

Nc1ncnc(Nc2ccc([N+](=O)[O-])cc2)c1[N+](=O)[O-]
inactive: [12] 97 % of control | [13] 92 % of control | [14] 96 % of control

O=C(CCCC(=O)NNC(=O)Nc1cccc(Cl)c1)NNC(=O)Nc1cccc(Cl)c1
inactive: dose: 50.0 mg/kg/injection, schedule: Q01DX001 (ip), vehicle: saline 96 % of control | [9] 106 % of control | [10] 106 % of control | [11] 93 % of control

CC1(C)N=C(N)N=C(N)N1c1ccc(OCC(=O)Nc2ccc(S(=O)(=O)F)cc2)c(Cl)c1
inactive: dose: 50.0 mg/kg/injection, schedule: Q01DX009 (ip), vehicle: carboxymethylcellulose (CMC) 106 % of control and 117 % of control | [2] 109 % of control | dose: 100.0 mg/kg/injection, schedule: Q01DX009 (ip), vehicle: carboxymethylcellulose (CMC) 114 % of control | dose: 400.0 mg/kg/injection, schedule: Q01DX009 (ip), vehicle: carboxymethylcellulose (CMC) 94 % of control | dose: 400.0 mg/kg/injection, schedule: Q01DX009 (ip), vehicle: saline 109 % of control

CC1CCCN(C(=O)/C=C/c2ccccc2)C1 (stereo unspecified)
inactive: dose: 50.0 mg/kg/injection, schedule: Q04DX002 (ip), vehicle: saline 104 % of control | dose: 100.0 mg/kg/injection, schedule: Q04DX002 (ip), vehicle: Klucel (hydroxypropylcellulose) (HPC) 91 % of control | dose: 100.0 mg/kg/injection, schedule: Q04DX002 (ip), vehicle: saline 93 % of control | dose: 200.0 mg/kg/injection, schedule: Q04DX002 (ip), vehicle: Klucel (hydroxypropylcellulose) (HPC) 95 % of control | dose: 200.0 mg/kg/injection, schedule: Q04DX002 (ip), vehicle: saline 97 % of control | dose: 400.0 mg/kg/injection, schedule: Q04DX002 (ip), vehicle: Klucel (hydroxypropylcellulose) (HPC) 95 % of control

Cc1nc(N)sc1C
inactive: [3] 100 % of control | dose: 25.0 mg/kg/injection, schedule: Q04DX003 (ip), vehicle: saline 89 % of control | [4] 102 % of control | dose: 50.0 mg/kg/injection, schedule: Q04DX003 (ip), vehicle: saline 100 % of control | dose: 75.0 mg/kg/injection, schedule: Q01DX001 (ip), vehicle: carboxymethylcellulose (CMC) 100 % of control | [8] 102 % of control | dose: 150.0 mg/kg/injection, schedule: Q01DX001 (ip), vehicle: carboxymethylcellulose (CMC) 102 % of control | dose: 300.0 mg/kg/injection, schedule: Q01DX001 (ip), vehicle: carboxymethylcellulose (CMC) 100 % of control

CCCCNCCO
inactive: [1] 96 % of control | [2] 100 % of control | dose: 100.0 mg/kg/injection, schedule: Q01DX009 (ip), vehicle: saline 115 % of control

c1ccc(SCc2ncc3cnccn23)cc1
inactive: dose: 100.0 mg/kg/injection, schedule: Q04DX003 (ip), vehicle: saline with Tween-80 97 % of control | dose: 200.0 mg/kg/injection, schedule: Q04DX003 (ip), vehicle: saline with Tween-80 94 % of control | dose: 400.0 mg/kg/injection, schedule: Q04DX003 (ip), vehicle: saline with Tween-80 103 % of control

CCC(C)(O)CC
inactive: [9] 97 % of control | [10] 110 % of control | [11] 110 % of control
